In the OPERA property sets (Mansouri et al. 2018):

Details: not given

Going from `COc1ccc2c(OC)c3ccoc3nc2c1OC` to `Cc1noc(NS(=O)(=O)c2ccc(N)cc2)c1C`, the melting point rises from 177 °C to 191 °C.

First: NC(=O)OCC(O)COc1ccc(Cl)cc1 (centres undefined)
Second: CCOCCOC(=O)C(C)Oc1ccc(Oc2ncc(C(F)(F)F)cc2Cl)cc1 (centres undefined)
The melting point of the first is higher: 90 °C for the first, 60 °C for the second.

Compared with `CS(=O)(=O)c1ccccc1`, `O=CNc1ccccc1` is lower in melting point: 86 °C for the first, 46 °C for the second.

Compared with `CCCC/C=C/CCCC`, `CCCCCCC(C)CC` (centres undefined) is lower in melting point: -73 °C for the first, -84.8 °C for the second.

First: CCCC(=O)O[C@H]1[C@H](C)O[C@@H](O[C@H]2[C@H](N(C)C)[C@@H](O)[C@H](O[C@H]3[C@@H](CC=O)C[C@@H](C)[C@@H](O)C=CC=CC[C@@H](C)OC(=O)C[C@@H](O)[C@@H]3OC)O[C@@H]2C)C[C@@]1(C)OC(=O)CC
Second: C[C@]12CC[C@H](O[C@@H]3O[C@H](CO[C@@H]4O[C@H](CO)[C@@H](O)[C@H](O)[C@H]4O)[C@@H](O)[C@H](O)[C@H]3O)C[C@@H]1CC[C@@H]1[C@@H]2CC[C@]2(C)[C@@H](C3=CC(=O)OC3)CC[C@]12O
The melting point of the first is lower: 116 °C for the first, 269 °C for the second.

Compared with `Cc1ccc(Cl)c(N)c1`, `Oc1ccc(Br)cc1Cl` is higher in melting point: 29.5 °C for the first, 50.5 °C for the second.

First: COc1cc(C=CCO)ccc1O
Second: O=C(O)c1cc2ccccc2cc1O
The melting point of the first is lower: 74 °C for the first, 222 °C for the second.

Compared with `CC(C)=CC1C(C(=O)OCc2coc(Cc3ccccc3)c2)C1(C)C` (centres undefined), `CCC(C(N)=O)c1ccccc1` (centres undefined) is higher in melting point: 44.2 °C for the first, 86 °C for the second.

Compared with `CN(C)B(F)N(C)C`, `CCSC` is lower in melting point: -44.3 °C for the first, -106 °C for the second.

Compared with `Clc1cc(Cl)c(OCC#CI)cc1Cl`, `Nc1cc(Cl)c(Cl)c(Cl)c1` is lower in melting point: 114 °C for the first, 99 °C for the second.

Compared with `C=C(CCl)CCl`, `C=C(CC)CC` is lower in melting point: -14 °C for the first, -132 °C for the second.

Going from `OCc1ccc(F)cc1` to `CCc1ccc([N+](=O)[O-])cc1`, the melting point falls from 23 °C to -12.3 °C.

Going from `C=C(C)CNc1ccc(C(C)C(=O)O)cc1` (centres undefined) to `CC(C)Nc1ccccc1`, the melting point falls from 107 °C to -10 °C.

Going from `CCCCCCCCCCCCCCCCCCCCc1ccccc1` to `CCCCCCCc1ccccc1`, the melting point falls from 44 °C to -48 °C.

Going from `Cc1ccc2nc3sc(=O)sc3nc2c1` to `Nc1nc(N)nc(-c2cc(Cl)ccc2Cl)n1`, the melting point rises from 170 °C to 268 °C.

Compared with `CC(C)(C)NC(=O)[C@H]1CC[C@H]2[C@@H]3CC[C@H]4NC(=O)C=C[C@]4(C)[C@H]3CC[C@]12C`, `CC(=O)O[C@H]1[C@H]2O[C@]23[C@@H]2CC[C@]4(O)C[C@@H](O)CC[C@]4(C)[C@H]2CC[C@]3(C)[C@H]1c1ccc(=O)oc1` is higher in melting point: 253 °C for the first, 260 °C for the second.

First: CC1CCSCC1
Second: O=C(O)C1=CCCCC1
The melting point of the first is lower: -28 °C for the first, 38 °C for the second.

Compared with `CC(C)(C)c1ccc(CSc2cnn(C(C)(C)C)c(=O)c2Cl)cc1`, `CCn1cc(C(=O)O)c(=O)c2ccc(-c3ccncc3)cc21` is higher in melting point: 112 °C for the first, 290 °C for the second.

Going from `O=C1c2c(O)cccc2Cc2cccc(O)c21` to `Cc1cc(C2(c3ccc(O)c(C)c3)OC(=O)c3ccccc32)ccc1O`, the melting point rises from 179 °C to 223 °C.

Going from `Cc1c(Br)c(Br)c(Br)c(Br)c1Br` to `Cc1ccc(S)cc1`, the melting point falls from 288 °C to 43 °C.

Compared with `O=c1c(O)c(-c2ccc(O)c(O)c2)oc2cc(O[C@@H]3O[C@H](CO)[C@@H](O)[C@H](O)[C@H]3O)cc(O)c12`, `COP(=S)(OC)Oc1ccc(SC)c(C)c1` is lower in melting point: 248 °C for the first, 7.5 °C for the second.

Compared with `COC(=O)Nc1nc2ccccc2[nH]1`, `CC(C)=CC1C(C(=O)OCc2coc(Cc3ccccc3)c2)C1(C)C` (centres undefined) is higher in log10 Koc (L/kg): 2.35 for the first, 5 for the second.

`Cc1ccc2nc3sc(=O)sc3nc2c1` and `COP(=S)(OC)Oc1ccc(SC)c(C)c1` are within 0.2 log units of each other in log10 Koc (L/kg): 3.36 for the first, 3.18 for the second.

First: COC(=O)Nc1nc2ccccc2[nH]1
Second: O=CNc1ccccc1
The log10 vapour pressure (mmHg) of the first is lower: -9.12 for the first, -2.45 for the second.

`CCSC` and `C=C(CC)CC` are within 0.2 log units of each other in log10 vapour pressure (mmHg): 2.2 for the first, 2.24 for the second.

Compared with `CCOCCOC(=O)C(C)Oc1ccc(Oc2ncc(C(F)(F)F)cc2Cl)cc1` (centres undefined), `CC(C)(C)c1ccc(CSc2cnn(C(C)(C)C)c(=O)c2Cl)cc1` is higher in log10 vapour pressure (mmHg): -10.9 for the first, -5.93 for the second.

Compared with `Cc1ccc2nc3sc(=O)sc3nc2c1`, `Cc1ccc(S)cc1` is higher in log10 vapour pressure (mmHg): -6.7 for the first, -0.191 for the second.

Going from `CCCCCCCc1ccccc1` to `Brc1cccs1`, the log10 vapour pressure (mmHg) rises from -1.51 to 1.37.

First: COP(=S)(OC)Oc1ccc(SC)c(C)c1
Second: C=CC(C)Cl (centres undefined)
The log10 vapour pressure (mmHg) of the first is lower: -4.98 for the first, 2.18 for the second.

For `COC(=O)Nc1nc2ccccc2[nH]1`, the ready biodegradability was “not readily biodegradable”.
With `CCCCCCCCCCCC(=O)OCC(O)C1OCC(O)C1O` (centres undefined) the ready biodegradability was “readily biodegradable”.
For `Cc1c(Br)c(Br)c(Br)c(Br)c1Br`, the ready biodegradability was “not readily biodegradable”.
For `O=C(O)c1cc2ccccc2cc1O`, the ready biodegradability was “not readily biodegradable”.

Compared with `CCCC/C=C/CCCC`, `CCCCCCC(C)CC` (centres undefined) is lower in boiling point: 171 °C for the first, 168 °C for the second.

First: Cc1ccc(Cl)c(N)c1
Second: Oc1ccc(Br)cc1Cl
The boiling point of the first is lower: 229 °C for the first, 234 °C for the second.

First: CN(C)B(F)N(C)C
Second: CCOC(=O)C(C)(C)C(C)=O
The boiling point of the first is lower: 106 °C for the first, 182 °C for the second.

Going from `C=C(CCl)CCl` to `C=C(CC)CC`, the boiling point falls from 138 °C to 64.7 °C.

Compared with `CCSC(C)=O`, `CCSC` is lower in boiling point: 116 °C for the first, 66.7 °C for the second.

First: C=CC(C)CCCC(C)C (centres undefined)
Second: CCCC(C)CC=O (centres undefined)
The boiling point of the first is higher: 154 °C for the first, 143 °C for the second.

Going from `OCc1ccc(F)cc1` to `CCc1ccc([N+](=O)[O-])cc1`, the boiling point rises from 210 °C to 246 °C.

Going from `COC(=O)Cc1ccccc1` to `O=CNc1ccccc1`, the boiling point rises from 216 °C to 271 °C.

Compared with `CCCCCCCCCCCCCCCCCCCCc1ccccc1`, `CCCCCCCc1ccccc1` is lower in boiling point: 429 °C for the first, 240 °C for the second.

Going from `CC1CCSCC1` to `CC1CCNCC1`, the boiling point falls from 159 °C to 130 °C.

Going from `Brc1cccs1` to `CC(C)Nc1ccccc1`, the boiling point rises from 150 °C to 203 °C.

Compared with `CCN=C=O`, `C#CC(=O)OCC` is higher in boiling point: 60 °C for the first, 120 °C for the second.

Going from `Fc1c(F)c(F)c(CBr)c(F)c1F` to `FC(F)=C(F)I`, the boiling point falls from 174 °C to 30 °C.

Compared with `O=C(O)C1=CCCCC1`, `CC(C)(Br)C(=O)Br` is lower in boiling point: 241 °C for the first, 163 °C for the second.

First: C=CC(C)Cl (centres undefined)
Second: C#CCNC
The boiling point of the first is lower: 64.5 °C for the first, 83 °C for the second.

Compared with `Cc1ccc(S)cc1`, `CCCC#CCCCC` is lower in boiling point: 195 °C for the first, 152 °C for the second.

Molecule `O=C(NC(=O)c1c(F)cccc1F)Nc1cc(Cl)c(Oc2ncc(C(F)(F)F)cc2Cl)c(Cl)c1` has a log10 Henry constant (atm·m³/mol) of -11.7.

Same assay, conditions: fish

Compared with `OC(C(F)(F)F)C(F)(F)F`, `CCc1cc(C(C)(C)C)c(O)c(C(C)(C)C)c1` is higher in log10 BCF: 0.4 for the first, 3.46 for the second.

Compared with `N#CCCNCCC#N`, `COC(=O)Nc1nc2ccccc2[nH]1` is higher in log10 BCF: 0.08 for the first, 0.4 for the second.

First: Nc1cc(Cl)c(Cl)c(Cl)c1
Second: O=C(O)c1cc2ccccc2cc1O
The log10 BCF of the first is higher: 2.36 for the first, 0.6 for the second.

`Cc1c(Br)c(Br)c(Br)c(Br)c1Br` and `COP(=S)(OC)Oc1ccc(SC)c(C)c1` are within 0.2 log units of each other in log10 BCF: 2.43 for the first, 2.52 for the second.

Compared with `OC(C(F)(F)F)C(F)(F)F`, `CCc1cc(C(C)(C)C)c(O)c(C(C)(C)C)c1` is higher in log10 biotransformation half-life (days): -1.32 for the first, 0.86 for the second.

Compared with `Cc1cccc2c1ccc1ccccc12`, `COP(=S)(OC)Oc1ccc(SC)c(C)c1` is lower in log10 biotransformation half-life (days): 0.63 for the first, -0.36 for the second.

Compared with `Nc1cc(Cl)c(Cl)c(Cl)c1`, `Cc1c(Br)c(Br)c(Br)c(Br)c1Br` is lower in log10 biotransformation half-life (days): 0.28 for the first, -0.13 for the second.
